Experimental data published in patent US20240199613A1 (TAKEDA PHARMACEUTICAL COMPANY LIMITED, priority 2021, published 2024).

Columns and labels:
[1] = target: human activated kallikrein enzyme (Homo sapiens, UniProt P03952); experiment: Inhibition of activated plasma kallikrein, fluorogenic peptide substrate (PFR-AMC) assay, 500 pM enzyme format; format: biochemical; settings: 500 pM activated kallikrein, 300 uM PFR-AMC, 30 min preincubation, 10 min reaction, room temperature; read-out: Primary Dose Response Assay: Average EC50
Chain of human activated kallikrein enzyme (P03952 391-638 limits assumed): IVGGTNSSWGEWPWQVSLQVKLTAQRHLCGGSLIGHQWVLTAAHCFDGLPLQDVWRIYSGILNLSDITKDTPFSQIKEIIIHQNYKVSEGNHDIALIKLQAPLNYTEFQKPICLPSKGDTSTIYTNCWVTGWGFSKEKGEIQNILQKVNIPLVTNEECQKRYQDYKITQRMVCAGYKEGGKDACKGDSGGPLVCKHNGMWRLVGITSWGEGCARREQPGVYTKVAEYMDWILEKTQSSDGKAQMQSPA
Chain of human activated kallikrein enzyme (P03952 20-390 partner limits assumed): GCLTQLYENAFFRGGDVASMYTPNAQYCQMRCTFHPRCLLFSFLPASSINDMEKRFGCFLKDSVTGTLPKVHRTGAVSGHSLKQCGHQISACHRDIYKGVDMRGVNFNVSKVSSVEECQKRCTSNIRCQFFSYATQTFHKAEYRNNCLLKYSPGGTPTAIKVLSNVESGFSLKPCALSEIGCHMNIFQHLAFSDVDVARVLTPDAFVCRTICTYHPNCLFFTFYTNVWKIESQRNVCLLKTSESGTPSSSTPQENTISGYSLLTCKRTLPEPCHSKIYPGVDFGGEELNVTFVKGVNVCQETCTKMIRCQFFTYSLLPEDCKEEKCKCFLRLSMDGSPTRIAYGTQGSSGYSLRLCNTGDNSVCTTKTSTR
Experimental: Compounds were evaluated for inhibition of the human activated kallikrein enzyme in two formats of an assay employing a fluorogenic peptide substrate. In one assay format, the concentrations of reagents were as follows: 20 mM Tris pH 7.5, 1 mM EDTA, 150 mM sodium chloride, 0.1% PEG-400, 0.1% Triton X-100, 500 pM activated kallikrein enzyme, 300 uM Pro-Phe-Arg-7-amido-4-methylcoumarin (PFR-AMC) substrate. Prior to reaction initiation with substrate, enzyme and inhibitors were preincubated for 30 min at room temperature. After initiation with substrate, reactions were incubated for 10 min at room temperature and fluorescence emission at 460 nm from 380 nm excitation measured with a microplate reader. In another assay format, the concentrations of reagents were as follows: 20 mM Tris pH 7.5, 1 mM EDTA, 150 mM sodium chloride, 0.1% PEG-400, 0.1% Triton X-100, 5 pM activated kallikrein enzyme, 300 uM PFR-AMC substrate. Prior to reaction initiation with substrate, enzyme and inhibitors were preincubated for 30 min at room temperature. After initiation with substrate, reactions were incubated for 18 hr at room temperature and fluorescence emission at 460 nm from 380 nm excitation measured with a microplate reader.
Table 6 provides the results of the assay in the format with 500 pM activated kallikrein assay.

plasma kallikrein = target: T1, plasma kallikrein (Homo sapiens, UniProt P03952); experiment: Neat human plasma assay: contact pathway-activated (FXIIa) plasma, PFR-AMC substrate; format: biochemical; settings: citrated human plasma (78% final), 10 nM human FXIIa, 100 μM PFR-AMC, room temperature
T1 construct: from tissue; host or cells: sodium citrate collected human plasma (78% final)
T1 sequence (P03952 391-638 limits assumed): as the sequence (P03952 391-638 limits assumed) above
T1 sequence (P03952 20-390 partner limits assumed): as the sequence (P03952 20-390 partner limits assumed) above
Experimental: To analyze inhibition of plasma kallikrein in an ex vivo setting, the potency of compounds was measure in contact pathway-activated plasma assays. In a fluorogenic peptide substrate assay, test compounds dissolved in DMSO were added to sodium citrate collected human or rat plasma in a 96-well microplate. Alternatively, citrated plasma was collected from rats administered the compounds orally or by IV. 10 nM of human FXIIa (Enzyme Research Laboratories) diluted in pKal buffer (20 mM Tris-HCl, pH 7.5, 150 mM NaCl, 1 mM EDTA, 0.1% PEG-8000, and 0.1% Triton X-100) was added to the plasma, followed by the 100 μM of the profluorescent, synthetic plasma kallikrein substrate PFR-AMC (also diluted in pKal buffer). Final plasma concentration in the reaction was 78%. Fluorescence was immediately monitored by excitation/emission wavelengths of 360 nm/480 nm respectively over a period of 5 minutes in a microplate reader. The resulting linear increase in fluorescence emission (reflecting pKal proteolysis of PFR-AMC substrate) was fit to extract a proteolytic rate (fluorescent units over time), and this rate was subsequently plotted against compound inhibitor concentration. Resulting plots were fit to a standard 4-parameter IC50/IC90 equation to determine min/max values, IC50/90, and slope. All experimental steps were performed at room temperature.

Row | EC50 [1] | IC90 (plasma kallikrein) | SMILES
1 | 1 to 10 nM | 1500 to 10000 nM | Cc1ccnc([C@H]2C[C@@H]2c2cc(-n3cncn3)c3ccc(NCc4cn5cc(C6CC6)cc(N6CC(=O)N(C)C6=O)c5n4)cc3n2)n1 (racemic) [Example 26, rac-1-(6-cyclopropyl-2-(((2-((1S*,2S*)-2-(4-methylpyrimidin-2-yl)cyclopropyl)-4-(1H-1,2,4-triazol-1-yl)quinolin-7-yl)amino)methyl)imidazo[1,2-a]pyridin-8-yl)-3-methylimidazolidine-2,4-dione]
2 | ≤ 1 nM | ≤ 400 nM | Cc1ccnc([C@H]2C[C@@H]2c2cc(N(C)C)c3ccc(NCc4cn5cc(C6CC6)cc(N6CC(=O)N(C)C6=O)c5n4)cc3n2)n1 (racemic) [Example 29, rac-1-(6-cyclopropyl-2-(((4-(dimethylamino)-2-((1S*,2S*)-2-(4-methylpyrimidin-2-yl)cyclopropyl)quinolin-7-yl)amino)methyl)imidazo[1,2-a]pyridin-8-yl)-3-methylimidazolidine-2,4-dione]
3 | ≤ 1 nM | ≤ 400 nM | CNc1cc([C@H]2C[C@@H]2c2nccc(C)n2)nc2cc(NCc3cn4cc(C5CC5)cc(N5CC(=O)N(C)C5=O)c4n3)ccc12 (racemic) [Example 32, rac-1-(6-cyclopropyl-2-(((4-(methylamino)-2-((1S*,2S*)-2-(4-methylpyrimidin-2-yl)cyclopropyl)quinolin-7-yl)amino)methyl)imidazo[1,2-a]pyridin-8-yl)-3-methylimidazolidine-2,4-dione]
4 | 1 to 10 nM | 1500 to 10000 nM | Cc1ccnc([C@H]2C[C@@H]2c2cc(N(C)S(C)(=O)=O)c3ccc(NCc4cn5cc(C6CC6)cc(N6CC(=O)N(C)C6=O)c5n4)cc3n2)n1 (racemic) [Example 34, rac-N-(7-(((6-cyclopropyl-8-(3-methyl-2,4-dioxoimidazolidin-1-yl)imidazo[1,2-a]pyridin-2-yl)methyl)amino)-2-((1S*,2S*)-2-(4-methylpyrimidin-2-yl)cyclopropyl)quinolin-4-yl)-N-methylmethanesulfonamide]
5 | ≤ 1 nM | 1500 to 10000 nM | Cc1ccnc([C@H]2C[C@@H]2c2ccc3ccc(NCc4cn5cc(C6CC6)cc(N6CC(=O)N(C)C6=O)c5n4)cc3n2)n1 (racemic) [Example 57, rac-1-(6-cyclopropyl-2-(((2-((1S*,2S*)-2-(4-methylpyrimidin-2-yl)cyclopropyl)quinolin-7-yl)amino)methyl)imidazo[1,2-a]pyridin-8-yl)-3-methylimidazolidine-2,4-dione]
6 | 1 to 10 nM | 10000 to 22000 nM | Cc1ccnc([C@H]2C[C@@H]2c2ncc3ccc(NCc4cn5cc(C6CC6)cc(N6CC(=O)N(C)C6=O)c5n4)cc3n2)n1 (racemic) [Example 60, rac-1-(6-cyclopropyl-2-(((2-((1S*,2S*)-2-(4-methylpyrimidin-2-yl)cyclopropyl)quinazolin-7-yl)amino)methyl)imidazo[1,2-a]pyridin-8-yl)-3-methylimidazolidine-2,4-dione]
7 | ≤ 1 nM | 400 to 1500 nM | Cc1ccnc([C@H]2C[C@@H]2C2=CS(=O)(=O)c3ccc(NCc4cn5cc(C6CC6)cc(N6CC(=O)N(C)C6=O)c5n4)cc3N2)n1 (racemic) [Example 61, rac-1-(6-cyclopropyl-2-(((3-((1S*,2S*)-2-(4-methylpyrimidin-2-yl)cyclopropyl)-1,1-dioxido-4H-benzo[b][1,4]thiazin-6-yl)amino)methyl)imidazo[1,2-a]pyridin-8-yl)-3-methylimidazolidine-2,4-dione]
8 | ≤ 1 nM | 400 to 1500 nM | Cc1ccnc([C@H]2C[C@@H]2c2cc(OCCO)c3ccc(NCc4cn5cc(C6CC6)cc(N6CC(=O)N(C)C6=O)c5n4)cc3n2)n1 (racemic) [Example 69, rac-1-(6-cyclopropyl-2-(((4-(2-hydroxyethoxy)-2-((1S*,2S*)-2-(4-methylpyrimidin-2-yl)cyclopropyl)quinolin-7-yl)amino)methyl)imidazo[1,2-a]pyridin-8-yl)-3-methylimidazolidine-2,4-dione]
9 | ≤ 1 nM | 400 to 1500 nM | COCc1cc(NCc2cn3cc(C4CC4)cc(N4CC(=O)N(C)C4=O)c3n2)cc2nc([C@H]3C[C@@H]3c3nccc(C)n3)ccc12 (racemic) [Example 75, rac-1-(6-cyclopropyl-2-(((5-(methoxymethyl)-2-((1S*,2S*)-2-(4-methylpyrimidin-2-yl)cyclopropyl)quinolin-7-yl)amino)methyl)imidazo[1,2-a]pyridin-8-yl)-3-methylimidazolidine-2,4-dione]
10 | ≤ 1 nM | 400 to 1500 nM | Cc1ccnc([C@H]2C[C@@H]2c2cc(CO)c3ccc(NCc4cn5cc(C6CC6)cc(N6CC(=O)N(C)C6=O)c5n4)cc3n2)n1 (racemic) [Example 77, rac-1-(6-cyclopropyl-2-(((4-(hydroxymethyl)-2-((1S*,2S*)-2-(4-methylpyrimidin-2-yl)cyclopropyl)quinolin-7-yl)amino)methyl)imidazo[1,2-a]pyridin-8-yl)-3-methylimidazolidine-2,4-dione]

Continued, molecule first:

Row | SMILES | EC50 [1] | IC90 (plasma kallikrein)
11 | Cc1ccnc([C@H]2C[C@@H]2c2cc(OC3COC3)c3ccc(NCc4cn5cc(C6CC6)cc(N6CC(=O)N(C)C6=O)c5n4)cc3n2)n1 (racemic) [Example 33, rac-1-(6-cyclopropyl-2-(((2-((1S*,2S*)-2-(4-methylpyrimidin-2-yl)cyclopropyl)-4-(oxetan-3-yloxy)quinolin-7-yl)amino)methyl)imidazo[1,2-a]pyridin-8-yl)-3-methylimidazolidine-2,4-dione] | ≤ 1 nM | 400 to 1500 nM
12 | Cc1ccnc([C@H]2C[C@@H]2c2cc(OC3CCN(C)CC3)c3ccc(NCc4cn5cc(C6CC6)cc(N6CC(=O)N(C)C6=O)c5n4)cc3n2)n1 (racemic) [Example 35, rac-1-(6-cyclopropyl-2-(((4-((1-methylpiperidin-4-yl)oxy)-2-((1S*,2S*)-2-(4-methylpyrimidin-2-yl)cyclopropyl)quinolin-7-yl)amino)methyl)imidazo[1,2-a]pyridin-8-yl)-3-methylimidazolidine-2,4-dione] | ≤ 1 nM | ≤ 400 nM
13 | Cc1ccnc([C@H]2C[C@@H]2c2cc(N3CCOCC3)c3ccc(NCc4cn5cc(C6CC6)cc(N6CC(=O)N(C)C6=O)c5n4)cc3n2)n1 (racemic) [Example 40, rac-1-(6-cyclopropyl-2-((1S*,2S)-2-(4-methylpyrimidin-2-yl)cyclopropyl)-4-morpholinoquinolin-7-yl)amino)methyl)imidazo[1,2-a]pyridin-8-yl)-3-methylimidazolidine-2,4-dione] | ≤ 1 nM | ≤ 400 nM
14 | Cc1ccnc([C@H]2C[C@@H]2C2=CS(=O)(=O)c3ccc(NCc4cn5cc(C6CC6)ccc5n4)cc3N2)n1 (racemic) [Example 55, rac-6-(((6-cyclopropylimidazo[1,2-a]pyridin-2 yl)methyl)amino)-3-((1S*,2S*)-2-(4-methylpyrimidin-2-yl)cyclopropyl)-4H-benzo[b][1,4]thiazine 1,1-dioxide] | ≤ 1 nM | 1500 to 10000 nM
15 | Cc1ccnc([C@H]2C[C@@H]2C2=NS(=O)(=O)c3ccc(NCc4cn5cc(C6CC6)ccc5n4)cc3N2)n1 (racemic) [Example 64, rac-6-(((6-cyclopropylimidazo[1,2-a]pyridin-2-yl)methyl)amino)-3-((1S*,2S*)-2-(4-methylpyrimidin-2-yl)cyclopropyl)-4H-benzo[e][1,2,4]thiadiazine 1,1-dioxide] | ≤ 1 nM | 400 to 1500 nM
16 | CCN1CCN(c2cc(C3CC3)cn3cc(CNc4ccc5ccc([C@H]6C[C@@H]6c6nccc(C)n6)nc5c4)nc23)CC1 (racemic) [Example 74, rac-N-((6-cyclopropyl-8-(4-ethylpiperazin-1-yl)imidazo[1,2-a]pyridin-2-yl)methyl)-2-((1S*,2S*)-2-(4-methylpyrimidin-2-yl)cyclopropyl)quinolin-7-amine] | ≤ 1 nM | 1500 to 10000 nM
17 | Cc1ccnc([C@H]2C[C@@H]2c2ccc3ccc(NCc4cn5cc(C6CC6)cc(N6CC(=O)N(C7COC7)C6=O)c5n4)cc3n2)n1 (racemic) [Example 78, rac-1-(6-cyclopropyl-2-(((2-((1S*,2S*)-2-(4-methylpyrimidin-2-yl)cyclopropyl)quinolin-7-yl)amino)methyl)imidazo[1,2-a]pyridin-8-yl)-3-(oxetan-3-yl)imidazolidine-2,4-dione] | ≤ 1 nM | 1500 to 10000 nM
